Results published in patent US7763615B2, “Ecteinascidin analogs for use as antitumour agents” (priority 2001, dated 2010).
Converted amounts (≈) assume the structure as drawn. Read-outs that look alike come from different tables or passages of the source.

Assays:
[1] = target: CYP3A4 (Homo sapiens, UniProt P08684); assay: in vitro; conditions: CYP3A4 (% inhibition)
[2] = test system: L8, normal rat skeletal muscle cells; conditions: 24 h
[3] = test system: (HEPG2); conditions: human, 24 h, 30 μM
[4] = test system: SW-620; assay: cells; format: cell-based; conditions: Homo sapiens; for CC50: SW-620, 48 h, read-out: LC50; for IC (TGI) / GI50: SW-620, 48 hours exposure, SRB; for GI50: read-out: GI50
Summary of the method: (§1)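 Seeding density 5×10^3 cells/well; attachment 18 h in drug-free medium; exposure 48 h, 10 to 10^−8 μg/ml. Fixation cold TCA 60 min at 4° C, SRB 10 min, absorbance 490 nm.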

[5] = test system: DU145; assay: cells; format: cell-based; conditions: Homo sapiens, DU-145, 48 h; for GI50 / IC (TGI): DU145, 48 hours exposure, SRB; for CC50: read-out: LC50, DU145, 48 hours exposure, SRB
Summary of the method: as §1

[6] = test system: MEL-28; assay: cells; format: cell-based; conditions: Homo sapiens, SK-MEL-28, 48 h; for GI50 / IC (TGI): MEL-28, 48 hours exposure, SRB; for CC50: read-out: LC50, MEL-28, 48 hours exposure, SRB
Summary of the method: as §1

[7] = test system: A549; assay: cells; format: cell-based; conditions: Homo sapiens, A549, 48 h; for IC (TGI): read-out: TGI; for CC50: read-out: LC50, A549, 48 hours exposure, SRB
Summary of the method: as §1

[8] = test system: A498; assay: cells; format: cell-based; conditions: Homo sapiens; for CC50: A498, 48 h, read-out: LC50; for GI50 / IC (TGI): A498, 48 hours exposure, SRB
Summary of the method: as §1

[9] = test system: MB231; assay: cells; format: cell-based; conditions: Homo sapiens; for CC50: read-out: LC50; for IC (TGI): read-out: TGI
Summary of the method: as §1

[10] = test system: HT29; assay: cells; format: cell-based; conditions: Homo sapiens, HT-29, 48 h; for GI50 / IC (TGI): HT29, 48 hours exposure, SRB; for CC50: read-out: LC50, HT29, 48 hours exposure, SRB
Summary of the method: as §1

[11] = test system: MCF; assay: cells; format: cell-based; conditions: Homo sapiens; for CC50: 48 h, read-out: LC50; for GI50 / IC (TGI): MCF, 48 hours exposure, SRB; for IC (TGI): read-out: TGI
Summary of the method: as §1

[12] = test system: AML-12, normal mouse liver cells; conditions: 24 h
Protocol: (§2) In order to assess the cytotoxicity of the drugs to normal cells, we used 96 well plates plated at a density of 5000 cells per well (except for the FDC-P1 which were plated at 12,000 cells per well) with normal cell lines (ATCC, Table 1) maintained as per the directions of the ATCC: AML-12, normal mouse liver cells; NRK-52E, normal rat kidney cells; L8, normal rat skeletal muscle cells; FDC-P1, normal mouse myelogeous stem cells; and H9c2 (2-1), normal rat cardiac muscle cells. The cells in each plate were permitted to settle overnight before adding the test drug.
(§3) To each well (100 μl medium) 10 μl of drug in media was added at varying concentrations (1×10-10-0.01 mg/ml final concentration) and further incubated overnight at 37° C. with 5% CO2. After 24 h the following assays were performed. All experiments were repeated at least 3 times and were assayed in duplicate.
(§4) MTS assay (CellTiter 96 aqueous) was performed according to the manufacturer's (Promega) directions (for all cell types). Cell viability (mitochondrial activity) is determined via enzymatic conversion of the formazan substrate.

[13] = target: CYP2D6 (Homo sapiens, UniProt P10635); assay: in vitro; conditions: CYP2D6 (% inhibition)
Sequence of CYP2D6 (P10635 whole entry): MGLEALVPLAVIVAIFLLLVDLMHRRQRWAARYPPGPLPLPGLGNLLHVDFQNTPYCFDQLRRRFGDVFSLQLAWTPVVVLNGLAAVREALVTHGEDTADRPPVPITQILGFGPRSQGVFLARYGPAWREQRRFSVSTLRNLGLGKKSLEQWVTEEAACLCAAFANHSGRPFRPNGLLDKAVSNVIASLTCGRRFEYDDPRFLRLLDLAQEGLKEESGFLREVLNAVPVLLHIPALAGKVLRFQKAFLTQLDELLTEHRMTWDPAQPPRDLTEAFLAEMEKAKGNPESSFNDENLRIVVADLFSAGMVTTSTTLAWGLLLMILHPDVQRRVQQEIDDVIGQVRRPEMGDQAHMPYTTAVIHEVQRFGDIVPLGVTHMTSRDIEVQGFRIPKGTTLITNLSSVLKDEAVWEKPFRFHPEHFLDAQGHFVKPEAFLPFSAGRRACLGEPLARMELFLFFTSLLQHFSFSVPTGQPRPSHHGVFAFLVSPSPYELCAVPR

[14] = physchem; conditions: pH 7.4, log D n-Octanol-Dulbecco's PBS pH 7.4
[15] = physchem; conditions: pH 7.4, aqueous buffer, Solubility Dulbecco's PBS pH 7.4
[16] = test system: FDC-P1, normal mouse myelogeous stem cells; conditions: 24 h
Protocol: as §2, §3, §4

[17] = s9, 60 min, 1 μM
Protocol: The metabolic stability was determined used human liver S9 homogenate that including both microsomal and cytosolic enzyme activities. The test compound was diluted in methanol (0.625%) and acetonitrile (0.625%) at the concentration 1 μM and incubated in the human liver pool (protein=1 mg/mL) during 60 min at 37° C. Peak areas corresponding to all analytes (metabolic products) were determined by HPLC-MS/MS. Areas were recorded and ratios of peak areas of analytes to that of internal standard for each analyte were determined. The ratio of precursor compound remaining after 60 minutes and the amount remaining at time zero, expressed as percent, are reported as metabolic stability. Higher values mean higher metabolic stability.

[18] = test system: H9c2 (2-1), normal rat cardiac muscle cells; conditions: 24 h
Protocol: as §2, §3, §4

[19] = test system: NRK-52E, normal rat kidney cells; conditions: 24 h
[20] = A549, 48 hours exposure, SRB, read-out: GI50

Sequence of CYP3A4 (P08684 whole entry): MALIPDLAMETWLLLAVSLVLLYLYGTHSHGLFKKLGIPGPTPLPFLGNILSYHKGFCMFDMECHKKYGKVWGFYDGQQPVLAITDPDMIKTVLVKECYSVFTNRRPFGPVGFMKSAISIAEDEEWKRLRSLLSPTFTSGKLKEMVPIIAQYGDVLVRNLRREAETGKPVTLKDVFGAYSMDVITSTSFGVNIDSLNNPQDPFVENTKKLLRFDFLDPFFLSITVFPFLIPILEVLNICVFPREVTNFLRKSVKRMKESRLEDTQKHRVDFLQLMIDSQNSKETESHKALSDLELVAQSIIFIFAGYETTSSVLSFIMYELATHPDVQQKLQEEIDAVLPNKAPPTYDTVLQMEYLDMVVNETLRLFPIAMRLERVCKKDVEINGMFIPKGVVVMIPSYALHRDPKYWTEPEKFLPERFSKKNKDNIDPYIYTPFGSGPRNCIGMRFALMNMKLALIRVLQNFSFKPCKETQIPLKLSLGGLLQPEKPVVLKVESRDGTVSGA

SMILES	inhibition at 30 min, 10 µM [1]	Skeletal [2]	Cell Viability (% inhibition) [3]	CC50 [4]	IC (TGI) [4]	GI50 [4]	GI50 [5]	IC (TGI) [5]	CC50 [5]	GI50 [6]	IC (TGI) [6]	CC50 [6]	IC (TGI) ([7]; A549, 48 hours exposure, SRB)	CC50 [7]	CC50 [8]	GI50 [8]	IC (TGI) [8]	CC50 ([9]; 48 h)	GI50 ([9]; MB231, 48 hours exposure, SRB)	GI50 [10]	also measured
COc1c(C)cc2c(c1O)[C@@H]1C3[C@@H]4SC[C@]5(NCCc6c5[nH]c5c(OCc7ccccc7)cccc65)C(=O)COC[C@@H](c5c6c(c(C)c(OC(C)=O)c54)OCO6)N3[C@@H](O)[C@H](C2)N1C (stereo partly drawn) [Compound 28]	79%	1.45E−07	17 % inhibition	92.9 nM	23.2 nM	6.97 nM	2.32 nM	3.48 nM	9.29 nM	23.2 nM	34.8 nM	81.3 nM	46.5 nM	34.8 nM	58.1 nM	3.48 nM	11.6 nM	116 nM	3.48 nM	11.6 nM	GI50 [7, 20]: 3.48 nM; IC (TGI) ([9]; 48 h): 9.29 nM; IC (TGI) [10]: 69.7 nM; CC50 [10]: 105 nM; CC50 [11]: 116 nM; GI50 [11]: 5.81 nM; IC (TGI) [11]: 23.2 nM; Liver [12]: 1.42E−07; inhibition at 450 min, 10 µM [13]: 34%; logD at 60 min [14]: > 4.6; solubility [15]: < 1 µM; Myelo [16]: 2.00E−07; Human Liver S9 Metabolic Stability (% remaining) [17]: 33 % remaining; Heart [18]: 1.84E−07; Kidney [19]: 8.37E−08
COc1c(C)cc2c(c1O)[C@@H]1C3[C@@H]4SC[C@]5(NCCc6c5[nH]c5ccc(OCc7ccccc7)cc65)C(=O)COC[C@@H](c5c6c(c(C)c(OC(C)=O)c54)OCO6)N3[C@@H](O)[C@H](C2)N1C (stereo partly drawn) [Compound 29]	55%	3.29E−07	29 % inhibition	105 nM	69.7 nM	23.2 nM	23.2 nM	34.8 nM	92.9 nM	23.2 nM	34.8 nM	81.3 nM	34.8 nM	92.9 nM	116 nM	3.48 nM	11.6 nM	116 nM	23.2 nM	23.2 nM	GI50 [7, 20]: 23.2 nM; IC (TGI) ([9]; MB231, 48 hours exposure, SRB): 46.5 nM; IC (TGI) [10]: 69.7 nM; CC50 [10]: 105 nM; CC50 [11]: 116 nM; GI50 [11]: 23.2 nM; IC (TGI) [11]: 34.8 nM; Liver [12]: 1.59E−08; inhibition at 450 min, 10 µM [13]: 27%; logD at 60 min [14]: > 4.9; solubility [15]: 1.59 µM (≈ 1.39 µg/mL); Myelo [16]: 1.79E−08; Human Liver S9 Metabolic Stability (% remaining) [17]: 9 % remaining; Heart [18]: 7.22E−08; Kidney [19]: 1.94E−08
COc1c(C)cc2c(c1O)[C@@H]1C3[C@@H]4SC[C@]5(NCCc6c5[nH]c5cc(F)ccc65)C(=O)COC[C@@H](c5c6c(c(C)c(OC(C)=O)c54)OCO6)N3[C@@H](O)[C@H](C2)N1C (stereo partly drawn) [Compound 32]	83%	1.51E−08	39 % inhibition	129 nM	25.9 nM	5.17 nM	1.29 nM	2.59 nM	3.88 nM	2.59 nM	10.3 nM	25.9 nM	25.9 nM	90.6 nM	51.7 nM	2.59 nM	9.06 nM	90.6 nM	2.59 nM	7.76 nM	GI50 [7]: 3.88 nM; IC (TGI) ([9]; MB231, 48 hours exposure, SRB): 9.06 nM; IC (TGI) [10]: 25.9 nM; CC50 [10]: 103 nM; CC50 [11]: 129 nM; GI50 [11]: 9.06 nM; IC (TGI) [11]: 25.9 nM; Liver [12]: 6.00E−07; inhibition at 450 min, 10 µM [13]: 12%; logD at 60 min [14]: > 4.3; solubility [15]: 14.3 µM (≈ 11.2 µg/mL); Myelo [16]: 5.25E−07; Human Liver S9 Metabolic Stability (% remaining) [17]: 9 % remaining; Heart [18]: 2.42E−07; Kidney [19]: 1.45E−07
